Measured values published in publication PMC9658513, “Discovery of Compounds That Selectively Repress the Amyloidogenic Processing of the Amyloid Precursor Protein: Design, Synthesis and Pharmacological Evaluation of Diphenylpyrazoles” (International Journal of Molecular Sciences, 2022).

Legend:
in vitro = type: cell-based, human; details: human
Summary of the method: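 Cells seeded at 3 × 10^4 per well, attached 24 h, then exposed to drug for 72 h in DMEM with 10% SVF. Viability by MTS colorimetric assay, absorbance at 490 nm.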

LC3 = experiment: Autophagic flux: LC3-I lipidation into LC3-II by Western blot; type: cell-based; details: Homo sapiens, 24 h, compound at 3 µM, SY5Y-APP^wt cells, vs control
Description: (§1) Previous work dedicated to compounds of family C [22] has underlined the effect of our compounds on autophagic flux and the lysosomal degradation pathways. More precisely, the role of the amino side chains and their number was highlighted. Therefore, we assessed whether the activity of compounds involved the modulation of lysosomal activities toward the accumulation of APP-CTFs and AICD. Thus, we studied the effect of a selection of compounds on the autophagic flux, more particularly, we evaluated the effect of compounds 24, 33, 34, 57, 65, 67, 70, and 71 on two markers associated with autophagy: p62 and LC3-I lipidation into LC3-II. To the previous selection of efficient compounds decreasing Aβ1–x production and increasing CTFα and AICD, we added compound 65 with no cytotoxicity at 100 µM. As a comparison, we also selected compound 57 with a hydroxymethyl substituent as a control. In addition to CQ, bafilomycin A, a well-known inhibitor of autophagic flux, was used as a control. Treatment with compounds 67 and 71 induced an increase in p62 expression by 2.5 and 4-fold, respectively, compared to the control condition (Figure 3). […] An increase in the two markers was also observed with compound 57, but to a smaller extent (1.7-fold for p62 and 2-fold for LC3-I/LC3-II).
(§2) The human neuroblastoma cell line SY5Y-APP^695WT was maintained in Dulbecco’s modified Eagle medium (DMEM, high glucose, pyruvate—GIBCO, Life Technologies, Carlsbad, CA, USA) supplemented with 10% fetal bovine serum, 2 mM L-glutamine, 1 mM non-essential amino acids and penicillin/streptomycin (GIBCO, Life Technologies, Carlsbad, CA, USA) at 37 °C in a 5% CO2 humidified incubator [36]. For compound treatment, a 10 mM stock solution was diluted in freshly supplemented DMEM medium to obtain the precise final concentration of the drug. Cells were plated at a density of 5 × 10^5 cells per well into 12-well plates and cultured with 1 mL supplemented DMEM cell medium for 24 h before compound exposure. The following day, the cell medium was replaced with fresh medium containing the compounds diluted at the indicated concentrations. Cells were treated for 24 h. At the end of the treatments, the cell medium was collected and kept at −80 °C until use, cells were rinsed once with PBS and extracted in 100 µL of Laemmli buffer (10 mM Tris, 20% glycerol, and 2% sodium dodecyl sulfate) using a cell-scraper. The cell lysate was further sonicated (30 pulses of 0.5 s, 60 Hz) for 5 min. Total protein concentration was determined using the Pierce BCA Protein Assay Kit (Thermo Scientific, Waltham, MA, USA) according to the manufacturer’s instructions. Samples were stored at −80 °C until analysis.
(§3) Cell protein lysates were prepared for Western blot analysis by diluting the sample with 1 volume of NuPAGE® lithium dodecyl sulfate (LDS) 2X sample buffer supplemented with 20% NuPAGE® sample reducing agents (Invitrogen). Samples were heated for 10 min at 100 °C. Ten µg of total proteins per well were loaded onto precast 4–12% Criterion XT Bis-Tris polyacrylamide gels (Bio-Rad) and electrophoresis was achieved after applying a tension of 150 V for 90 min using a Criterion electrophoresis cell with the NuPAGE® MOPS SDS running buffer (1X). Proteins were transferred to a nitrocellulose membrane of […] pore size (G&E Healthcare, Madison, WI, USA) using the Criterion blotting system and applying a tension of 100 V for 45 min. To resolve proteins of low molecular weights such as carboxy-terminal fragments of APP, 12% Criterion XT Bis-Tris polyacrylamide gels (Bio-Rad, Hercules, CA, USA) were used, and electrophoresis was performed for 70 min at 150 V in a NuPAGE® MES SDS running buffer (1X). Proteins were transferred to a nitrocellulose membrane of 0.2 µm pore size (G&E Healthcare, Madison, WI, USA) at 100 V for 40 min. Molecular weight calibration was achieved using molecular weight markers (Novex and Magic Marks, Life Technologies, Carlsbad, CA, USA). […]

p62 = experiment: Autophagic flux: p62 expression by Western blot; type: cell-based, human; details: 24 h, compound at 3 µM, SY5Y-APP^wt cells, vs control; for fold induction at 3 µM: Homo sapiens
Description: as §1, §2, §3

Row | Compound | CC50 at 72 h (in vitro) | fold induction at 3 µM (LC3) | fold induction at 3 µM (p62) | p62 (p62)
1 | CN(C)CCCc1ccc(-c2nn(-c3ccc(CN(C)C)cc3)cc2CN(C)C)cc1 [Compound 24, 3-[4-[4-(Dimethylaminomethyl)-1-[4-(dimethylaminomethyl)phenyl] Pyrazol-3-yl]phenyl]-N,N-dimethyl-propan-1-amine] | > 100 µM | 3.3 | 1.64 | 
2 | Cc1cn(-c2cccc(CO)c2)nc1-c1ccc(CN(C)CCCN(C)C)cc1 [Compound 57, (3-{3-[4-({[3-(Dimethylamino)propyl](methyl)amino}methyl)phenyl]-4-methyl-1H-pyrazol-1-yl}phenyl)methanol] | > 100 µM | 2 | 1.7 | 
3 | Cc1cn(-c2cccc(CN3CCN(C)CC3)c2)nc1-c1cccc(CN(C)C)c1 [Compound 65, N,N-dimethyl-1-[3-[4-methyl-1-[3-[(4-methylpiperazin-1-yl)methyl]phenyl]pyrazol-3-yl]phenyl]methanamine] | > 100 µM | 2.63 | 1.64 | 
4 | Cc1cn(-c2cccc(CN(C)C)c2)nc1-c1ccc(CN(C)CCCN(C)C)cc1 [Compound 67, {[4-(1-{3-[(Dimethylamino)methyl]phenyl}-4-methyl-1H-pyrazol-3-yl)phenyl]methyl} [3-(Dimethylamino)propyl]methylamine] | 12 µM | 5.2 | 2.5 | 
5 | Cc1cn(-c2cccc(CN(C)C)c2)nc1-c1cccc(CN(C)CCCN(C)C)c1 [Compound 70, N′-[[3-[1-[3-(Dimethylaminomethyl)phenyl]-4-methyl-pyrazol-3-yl]phenyl] Methyl]-N,N,N′-trimethyl-propane-1,3-diamine] | 51 µM | 6 | 3 | 
6 | Cc1cn(-c2cccc(CN3CCN(C)CC3)c2)nc1-c1cccc(CN(C)CCCN(C)C)c1 [Compound 71, N,N,N′-Trimethyl-N′-[[3-[4-methyl-1-[3-[(4-methylpiperazin-1-yl)methyl]phenyl]pyrazol-3-yl]phenyl]methyl]propane-1,3-diamine] | 25 µM | 6.5 | 4 | 
7 | N′-[[4-[4-[3-(Dimethylamino)propyl]-3-[4-[3-(dimethylamino)propyl]phenyl] Pyrazol-1-yl]phenyl]methyl]-N,N,N′-trimethyl-propane-1,3-diamine [Compound 33] |  |  |  | 1.04 Fold-change
